Reference: ChEMBL document CHEMBL1201862, “PubChem BioAssay data set” (2004)
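How tested: cells in 96-well plates exposed to compound for 48 hours at five concentrations. The concentration for 50% growth inhibition is given as GI50.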 Calls of active or inactive are those of the source. Rule as the data show it: active = GI50 up to about 1.1 µM and inactive = higher.

Experiments:
Test in all cases: growth of human tumour cells (NCI), 48 h
K562 = tested on: K562
SN12C = tested on: SN12C
A498 = tested on: A498
A549 = tested on: A549
CAKI-1 = tested on: CAKI-1
NCI-H522 = tested on: NCI-H522
ACHN = tested on: ACHN
SNB-75 = tested on: SNB-75
M14 = tested on: M14
SF-268 = tested on: SF-268
HT-29 = tested on: HT-29
UACC-62 = tested on: UACC-62
SK-MEL-2 = tested on: SK-MEL-2
OVCAR-3 = tested on: OVCAR-3
NCI-H226 = tested on: NCI-H226
IGROV-1 = tested on: IGROV-1
SNB-19 = tested on: SNB-19

Compound | GI50 (K562) | GI50 (SN12C) | GI50 (A498) | GI50 (A549) | GI50 (CAKI-1) | GI50 (NCI-H522) | GI50 (ACHN) | GI50 (SNB-75) | GI50 (M14) | GI50 (SF-268) | GI50 (HT-29) | GI50 (UACC-62) | GI50 (SK-MEL-2) | GI50 (OVCAR-3) | GI50 (NCI-H226) | GI50 (IGROV-1) | GI50 (SNB-19)
CN(C)CCNC(=O)c1cccc2cc3ccc4ccccc4c3nc12 | 0.0653 µM (active) | 0.0531 µM (active) | < 0.01 µM (active) | 0.0226 µM (active) | 0.0413 µM (active) | 0.122 µM (active) | 0.0276 µM (active) | 0.131 µM (active) | 0.2 µM (active) | 0.0953 µM (active) | 0.0516 µM (active) | 0.0776 µM (active) | 0.203 µM (active) | 0.215 µM (active) | 0.112 µM (active) | 0.105 µM (active) | 0.0942 µM (active)
COCCOCC(=O)N(CCn1ccc(NC(c2ccccc2)(c2ccccc2)c2ccccc2)nc1=O)CCn1cnc2nc(N)[nH]c(=O)c21 | > 100 µM (inactive) | > 100 µM (inactive) | > 100 µM (inactive) | > 100 µM (inactive) | > 100 µM (inactive) | – | > 100 µM (inactive) | > 100 µM (inactive) | > 100 µM (inactive) | > 100 µM (inactive) | > 100 µM (inactive) | > 100 µM (inactive) | > 100 µM (inactive) | > 100 µM (inactive) | > 100 µM (inactive) | > 100 µM (inactive) | –
COc1ccc(/N=N/c2c(-c3ccccc3)nn(C(=O)CC(=O)Nc3cccc(Cl)c3)c2-c2ccccc2)cc1 | 85.7 µM (inactive) | > 100 µM (inactive) | > 100 µM (inactive) | 32.3 µM (inactive) | 34.5 µM (inactive) | 43 µM (inactive) | > 100 µM (inactive) | 6.08 µM (inactive) | – | > 100 µM (inactive) | > 100 µM (inactive) | > 100 µM (inactive) | > 100 µM (inactive) | 29.6 µM (inactive) | 4.82 µM (inactive) | > 100 µM (inactive) | > 100 µM (inactive)
Cc1ccc(/C=N/NS(=O)(=O)c2ccccc2)cc1 | > 100 µM (inactive) | > 100 µM (inactive) | > 100 µM (inactive) | > 100 µM (inactive) | > 100 µM (inactive) | – | > 100 µM (inactive) | > 100 µM (inactive) | > 100 µM (inactive) | > 100 µM (inactive) | > 100 µM (inactive) | > 100 µM (inactive) | > 100 µM (inactive) | > 100 µM (inactive) | > 100 µM (inactive) | > 100 µM (inactive) | –
C=C1C(=O)OC2C=C(CCC(C)=O)C(C)C(OC(C)=O)CC12 (centres undefined) | 3.86 µM (inactive) | 15.7 µM (inactive) | 16.1 µM (inactive) | 22.2 µM (inactive) | 8.83 µM (inactive) | – | 6.84 µM (inactive) | 10.8 µM (inactive) | 5.42 µM (inactive) | 16.1 µM (inactive) | 11.8 µM (inactive) | 12.6 µM (inactive) | 14.2 µM (inactive) | 12.7 µM (inactive) | 13.6 µM (inactive) | 21.5 µM (inactive) | 17.6 µM (inactive)
COC1OC(C)C2OC(C)(C)OC2C1OC(C)=O (centres undefined) | > 100 µM (inactive) | > 100 µM (inactive) | > 100 µM (inactive) | > 100 µM (inactive) | > 100 µM (inactive) | > 100 µM (inactive) | > 100 µM (inactive) | – | > 100 µM (inactive) | > 100 µM (inactive) | > 100 µM (inactive) | > 100 µM (inactive) | – | > 100 µM (inactive) | > 100 µM (inactive) | > 100 µM (inactive) | > 100 µM (inactive)
CC1(C)C(O)C[C@@H](O)[C@@]2(C)C1CC[C@]1(C)C2C[C@@H](O)[C@@H]2C([C@@]3(C)CC[C@@H](C(C)(C)O)O3)CCC21C (some centres undefined) | 35.2 µM (inactive) | 13.8 µM (inactive) | 17.3 µM (inactive) | 18.9 µM (inactive) | 18.3 µM (inactive) | 14.6 µM (inactive) | 19.1 µM (inactive) | 15 µM (inactive) | 13.8 µM (inactive) | 17.2 µM (inactive) | 17.6 µM (inactive) | 9.93 µM (inactive) | 14.7 µM (inactive) | 15.7 µM (inactive) | 19.5 µM (inactive) | 14.5 µM (inactive) | 14.2 µM (inactive)
COc1ccc(C(c2ccc(C(C)C)cc(OC)c2=O)c2ccc(C(C)C)cc(OC)c2=O)cc1 | 10.7 µM (inactive) | 16.1 µM (inactive) | 17.7 µM (inactive) | 12 µM (inactive) | 18.9 µM (inactive) | 14.4 µM (inactive) | – | 19.6 µM (inactive) | 14.9 µM (inactive) | 13.6 µM (inactive) | 10.8 µM (inactive) | 14.8 µM (inactive) | 15.9 µM (inactive) | 13.2 µM (inactive) | 18.1 µM (inactive) | – | 15.9 µM (inactive)
O=C(CC1(O)C(=O)Nc2c(Cl)cc(Cl)cc21)c1ccc(F)cc1 (centres undefined) | – | 28.4 µM (inactive) | – | 59 µM (inactive) | 92 µM (inactive) | – | 35.9 µM (inactive) | 25.9 µM (inactive) | 32.7 µM (inactive) | 39.6 µM (inactive) | 27.3 µM (inactive) | 35.8 µM (inactive) | 46.8 µM (inactive) | 37.6 µM (inactive) | 33.3 µM (inactive) | 28.3 µM (inactive) | 59.3 µM (inactive)
Cc1ccc(S(=O)(=O)N/N=C(\c2nc3ccc([N+](=O)[O-])cc3nc2O)C(O)c2ccccc2Cl)cc1 (centres undefined) | 28.2 µM (inactive) | > 100 µM (inactive) | > 100 µM (inactive) | > 100 µM (inactive) | > 100 µM (inactive) | 6.93 µM (inactive) | > 100 µM (inactive) | > 100 µM (inactive) | 82.8 µM (inactive) | > 100 µM (inactive) | > 100 µM (inactive) | 86.9 µM (inactive) | > 100 µM (inactive) | > 100 µM (inactive) | > 100 µM (inactive) | > 100 µM (inactive) | > 100 µM (inactive)
Cc1ccc(S(=O)(=O)C(C#N)c2nc3ccccc3nc2-n2cccn2)cc1 (centres undefined) | > 100 µM (inactive) | > 100 µM (inactive) | – | > 100 µM (inactive) | – | – | > 100 µM (inactive) | > 100 µM (inactive) | > 100 µM (inactive) | > 100 µM (inactive) | > 100 µM (inactive) | – | > 100 µM (inactive) | > 100 µM (inactive) | > 100 µM (inactive) | > 100 µM (inactive) | > 100 µM (inactive)
Cc1cccc(/N=C/c2ccc(N(CCC#N)S(=O)(=O)c3ccccc3)cc2C)c1 | 34.5 µM (inactive) | > 100 µM (inactive) | > 100 µM (inactive) | > 100 µM (inactive) | > 100 µM (inactive) | > 100 µM (inactive) | 88.3 µM (inactive) | 67 µM (inactive) | > 100 µM (inactive) | 58.9 µM (inactive) | > 100 µM (inactive) | 26.1 µM (inactive) | > 100 µM (inactive) | > 100 µM (inactive) | 20.7 µM (inactive) | > 100 µM (inactive) | > 100 µM (inactive)
CCOC(=O)C1S/C(=N\C(=N)N[N+](=O)[O-])N=C1C (centres undefined) | > 100 µM (inactive) | > 100 µM (inactive) | > 100 µM (inactive) | > 100 µM (inactive) | – | > 100 µM (inactive) | > 100 µM (inactive) | > 100 µM (inactive) | – | > 100 µM (inactive) | > 100 µM (inactive) | – | > 100 µM (inactive) | > 100 µM (inactive) | > 100 µM (inactive) | > 100 µM (inactive) | > 100 µM (inactive)
O=C1C(=Cc2cccs2)C(=O)N(CCc2ccccc2)S(=O)(=O)N1CCc1ccccc1 | 32.7 µM (inactive) | > 50 µM (inactive) | – | > 50 µM (inactive) | – | 15.5 µM (inactive) | 22.6 µM (inactive) | > 50 µM (inactive) | > 50 µM (inactive) | 36.2 µM (inactive) | > 50 µM (inactive) | > 50 µM (inactive) | > 50 µM (inactive) | > 50 µM (inactive) | > 50 µM (inactive) | 9.2 µM (inactive) | > 50 µM (inactive)
C=CCC1(CN(C)C)CC/C(=C\c2ccc(Cl)cc2)C1=O (centres undefined) | 26.9 µM (inactive) | 70.1 µM (inactive) | 37.2 µM (inactive) | 59.6 µM (inactive) | > 100 µM (inactive) | 18.9 µM (inactive) | 44.8 µM (inactive) | 33 µM (inactive) | 23.7 µM (inactive) | 37.8 µM (inactive) | 24.1 µM (inactive) | 49.9 µM (inactive) | > 100 µM (inactive) | 36.1 µM (inactive) | 96.8 µM (inactive) | 29.2 µM (inactive) | 77.3 µM (inactive)
Cc1cc(C)nc(NS(=O)(=O)c2ccc(NC(=O)c3cccc4cc5ccccc5nc34)cc2)n1 | 24.5 µM (inactive) | 28.5 µM (inactive) | 21.3 µM (inactive) | 34.3 µM (inactive) | 50.9 µM (inactive) | 18.7 µM (inactive) | 44.3 µM (inactive) | 51.4 µM (inactive) | 24.2 µM (inactive) | 16.2 µM (inactive) | 35.8 µM (inactive) | 20 µM (inactive) | 30.3 µM (inactive) | 24.8 µM (inactive) | 23.2 µM (inactive) | 35.5 µM (inactive) | 25.7 µM (inactive)
CC1(C)C(O)OC(O)C1(C)C (centres undefined) | 57.9 µM (inactive) | 82.2 µM (inactive) | – | > 100 µM (inactive) | > 100 µM (inactive) | – | > 100 µM (inactive) | 35.2 µM (inactive) | 65.2 µM (inactive) | – | 62.4 µM (inactive) | 91 µM (inactive) | 89.7 µM (inactive) | 30.9 µM (inactive) | 18.1 µM (inactive) | > 100 µM (inactive) | 66.8 µM (inactive)
